The results in this text go back to ChEMBL document CHEMBL1949614, “Advent of Imidazo[1,2-a]pyridine-3-carboxamides with Potent Multi- and Extended Drug Resistant Antituberculosis Activity” (ACS Med Chem Lett, 2011).

The subject of data set [1] is Escherichia coli. Kind of data set: Antimicrobial activity against Escherichia coli. Format: functional.
Data set [2] relates to Mycobacterium tuberculosis. Kind of data set: Antitubercular activity against non-replicating Mycobacterium tuberculosis H37Rv expressing vibrio harveyii luciferase gene incubated 10 days under anaerobic condition measured after 28 hrs of recovery in aerobic condition by luciferase based low oxygen recovery assay.
The subject of data set [3] is Staphylococcus aureus. Kind of data set: Antibacterial activity against Staphylococcus aureus. Format: functional.
Data set [4] concerns Vero. The data set is described as follows: Cytotoxicity against african green monkey Vero cells after 72 hrs. Format: cell-based. To be noted: Chlorocebus sabaeus.
For data set [5], the system named is Mycobacterium tuberculosis. The data set is described as follows: microbe, parasite or virus in culture. Particulars: H37Rv ATCC 27294, 168 h.
Description: Antituberculosis activity against Mycobacterium tuberculosis H37Rv ATCC 27294 in 7H12 medium after 1 week by microplate alamar blue assay
For data set [6], the system named is Candida albicans. Kind of data set: Antifungal activity against Candida albicans. Format: functional.
Data set [7] deals with Mycobacterium tuberculosis. The data set is described as follows: microbe, parasite or virus in culture. To be noted: H37Rv ATCC 27294, 168 h. This is another data set of the same source.
Description: Antituberculosis activity against Mycobacterium tuberculosis H37Rv ATCC 27294 in GAS medium after 1 week by microplate alamar blue assay
The subject of data set [8] is Mycobacterium tuberculosis. The data set is described as follows: microbe, parasite or virus in culture. Particulars: H37Rv ATCC 27294, 168 h. This is another data set of the same source.
Description: Antituberculosis activity against Mycobacterium tuberculosis H37Rv ATCC 27294 in GAST medium after 1 week by microplate alamar blue assay
In data set [9] the test system is Rattus norvegicus. The data set is described as follows: Oral bioavailability in Sprague-Dawley rat at 10 mg/kg. Format: ADME, organism-based. To be noted: in vivo.
A short description of data set [10]: Clearance in Sprague-Dawley rat at 1 mg/kg, iv. Format: ADME, organism-based. Also on record: dose 1 mg/kg, route intravenous. Particulars: in vivo.
A short description of data set [11]: in vivo. To be noted: Sprague-Dawley, rat, po, 10 mg/kg.
Data set [12] in a line: Drug metabolism in human liver microsomes at 1 mM after 30 mins by LC/MS analysis. Format: ADME, Microsome. To be noted: read-out: Drug metabolism.
Data set [13] in a line: Aqueous solubility of the compound in PBS buffer at pH 7.4. Format: physicochemical.
Data set [14] can be described thus: Half life in Sprague-Dawley rat at 1 mg/kg, iv. Format: ADME, organism-based. Also on record: dose 1 mg/kg, route intravenous. To be noted: in vivo.
The nature of data set [15]: Drug metabolism in rat liver microsomes at 1 mM after 30 mins by LC/MS analysis. Format: ADME, Microsome. To be noted: read-out: Drug metabolism. A general note: Liver microsomes are a subcellular fraction often used to study metabolism.
Data set [16] is described as follows: Cmax in Sprague-Dawley rat at 10 mg/kg, po. Format: ADME, organism-based. Also on record: dose 10 mg/kg, route oral. Particulars: in vivo.
Data set [17] deals with Mycobacterium tuberculosis. The data set is described as follows: microbe, parasite or virus in culture. To be noted: H37Rv.
Description: Antimicrobial activity against Mycobacterium tuberculosis H37Rv by microbroth dilution assay
Data set [18] has as its system Mycobacterium kansasii. Kind of data set: Antimicrobial activity against Mycobacterium kansasii by microbroth dilution assay. Format: functional. (Dilution methods test growth across graded concentrations, often in twofold steps.)
In data set [19] the test system is Mycobacterium marinum. The data set is described as follows: Antimicrobial activity against Mycobacterium marinum by microbroth dilution assay. Format: functional.
Data set [20] deals with Mycobacteroides abscessus. Kind of data set: Antimicrobial activity against Mycobacterium abscessus by microbroth dilution assay. Format: functional.
Data set [21] concerns Mycolicibacterium smegmatis. The data set is described as follows: Antimicrobial activity against Mycobacterium smegmatis by microbroth dilution assay. Format: functional.
The subject of data set [22] is Mycobacteroides chelonae. The data set is described as follows: Antimicrobial activity against Mycobacterium chelonae by microbroth dilution assay. Format: functional.
In data set [23] the test system is Mycobacterium avium. Kind of data set: Antimicrobial activity against Mycobacterium avium by microbroth dilution assay. Format: functional.
The test system of data set [24] is Mycobacterium tuberculosis. Kind of data set: Antitubercular activity against Mycobacterium tuberculosis assessed as up-regulation of cytochrome bd oxidase at 0.1 to 10 ug/mL after 6 hrs. Format: functional, organism-based.
For data set [25], the system named is Mycobacterium tuberculosis. The data set is described as follows: Antitubercular activity against Mycobacterium tuberculosis assessed as up-regulation of phosphoenolpyruvate carboxykinase at 0.1 to 10 ug/mL after 6 hrs. Format: functional, organism-based.
Data set [26] in a line: Half life in rat liver microsomes at 1 mM by LC/MS analysis. Format: ADME, Microsome.

Broadly, the MIC is the least concentration at which growth counts as inhibited. Usually IC50 stands for the point on the concentration scale where inhibition reaches its midpoint. The term clearance denotes a measure of how efficiently the substance is removed, as volume per time. As a reminder, the Tmax is the time from dosing to the highest level. One may read the solubility as the concentration that dissolves in the medium under given conditions. Broadly, the half-life is the time needed for the level to fall by half in the phase considered. Usually Cmax stands for the peak of the concentration-time curve.

Molecules are shown by their SMILES. Values after ≈ are worked out from the molar mass of the structure shown. Active and inactive are the calls of the source.

`Cc1ccn2c(C(=O)NCc3cccc(F)c3)c(C)nc2c1`: the minimum inhibitory concentration (MIC) in data set [1], in [3] and in [6] was > 128 µM in each case. The MIC90 amounted to 40.1 µM (≈ 11.9 µg/mL) in data set [2], 1.98 µM (≈ 0.589 µg/mL) in data set [5], 0.29 µM (≈ 0.0862 µg/mL) in data set [7] and 0.38 µM (≈ 0.113 µg/mL) in data set [8]. For the same compound, the concentration for half-maximal inhibition (IC50) in [4] was > 128 µM.
On to `COc1ccc(CNC(=O)c2c(C)nc3cc(C)ccn23)cc1`, for which the MIC in data set [1], in data set [3] and in data set [6] was > 128 µM each time. Moreover, the MIC90 in data set [2] amounted to 10.5 µM (≈ 3.25 µg/mL); in data set [5], 1.35 µM (≈ 0.418 µg/mL); in data set [7] it was 0.51 µM (≈ 0.158 µg/mL); in data set [8], 0.5 µM (≈ 0.155 µg/mL). The F in [9] is on record as 50%. The clearance in [10] came out at 28 mL/min/kg. The 50% inhibitory concentration (IC50) in data set [4] was > 128 µM. The Tmax in [11] is 15 min. In addition, the metabolised at 0.5 h in data set [12] is 30%; in [15] it was 69%. For the same compound, the solubility in data set [13] came to 148 µM (≈ 45.8 µg/mL). The half-life in data set [14] was 16.8 min. For the same compound, the concentration in [16] peaked (Cmax) at 5740 ng/mL.
Regarding `COc1cccc(CNC(=O)c2c(C)nc3cc(C)ccn23)c1`, the MIC in data set [1], in [3] and in data set [6] was > 128 µM each time. The MIC90 is 31.4 µM (≈ 9.71 µg/mL) in [2], 5.9 µM (≈ 1.83 µg/mL) in data set [5], 1.2 µM (≈ 0.371 µg/mL) in data set [7] and 1 µM (≈ 0.309 µg/mL) in data set [8]. Besides, the clearance in data set [10] stood at 43 mL/min/kg. The IC50 in data set [4] is > 128 µM. For the same compound, the Tmax in data set [11] came to 15 min. Further, the metabolised at 0.5 h was found to be 47% in data set [12] and 80% in data set [15]. In addition, in data set [13], the solubility came to 149 µM (≈ 46.1 µg/mL). Moreover, the half-life in [14] was 19.8 min. Also, the Cmax in [16] was 3140 ng/mL.
As for `Cc1ccn2c(C(=O)NCc3ccc(Cl)c(Cl)c3)c(C)nc2c1`, the MIC90 in [7] turned out to be 9.3 µM (≈ 3.24 µg/mL); in [8], 14.4 µM (≈ 5.01 µg/mL).
Take `Cc1ccn2c(C(=O)Nc3ccccc3)c(C)nc2c1`: the MIC90 in data set [8] was > 128 µM.
Regarding `COc1ccccc1CNC(=O)c1c(C)nc2cc(C)ccn12`, the half-maximal inhibitory concentration (IC50) in data set [4] is > 128 µM. Further, the MIC90 in [7] turned out to be 2.8 µM (≈ 0.866 µg/mL); in data set [8], 1.9 µM (≈ 0.588 µg/mL).
Turning to `CO[C@H]1/C=C/O[C@@]2(C)Oc3c(C)c(O)c4c(O)c(c(/C=N/N5CCN(C)CC5)c(O)c4c3C2=O)NC(=O)/C(C)=C\C=C\[C@H](C)[C@H](O)[C@@H](C)[C@@H](O)[C@@H](C)[C@H](OC(C)=O)[C@@H]1C` [RIFAMPIN], the MIC90 in data set [17] was 0.05 µM (≈ 0.0411 µg/mL); in [18], < 0.78 µM; in data set [19], < 0.78 µM; in [5], 0.07 µM (≈ 0.0576 µg/mL); in data set [20] it was 162 µM (≈ 134 µg/mL); in data set [21], 162 µM (≈ 134 µg/mL). The MIC90 was 150 µM (≈ 123 µg/mL) in [22], 0.8 µM (≈ 0.658 µg/mL) in [7], 0.2 µM (≈ 0.165 µg/mL) in [8] and < 0.78 µM in data set [23]. For the same compound, in [4], the half-maximal inhibitory concentration (IC50) stood at 113 µM.
For `Cc1ccc(CNC(=O)c2c(C)nc3cc(C)ccn23)cc1`, in data set [4], half-maximal inhibition (IC50) was put at 54.7 µM. Moreover, the MIC90 is 0.51 µM (≈ 0.15 µg/mL) in data set [7] and 0.8 µM (≈ 0.235 µg/mL) in [8].
For `O=[N+]([O-])c1cn2c(n1)OC[C@@H](OCc1ccc(OC(F)(F)F)cc1)C2` [PRETOMANID], the MIC90 in data set [2] was 4.9 µM (≈ 1.76 µg/mL); in data set [5], 0.47 µM (≈ 0.169 µg/mL); in [7], 0.31 µM (≈ 0.111 µg/mL); in data set [8], 0.21 µM (≈ 0.0754 µg/mL). Besides, the IC50 in [4] was > 128 µM.
In the case of `COc1cccc(CNC(=O)c2c(C)nc3ncc(C)cn23)c1`, the MIC in data set [1], in data set [3] and in data set [6] was > 128 µM throughout. Besides, the MIC90 is > 10 µM in data set [2]; 5.94 µM (≈ 1.84 µg/mL) in data set [17]; 12 µM (≈ 3.72 µg/mL) in [18]; > 50 µM in data set [19]; 0.48 µM (≈ 0.149 µg/mL) in data set [5]; > 50 µM in [20]. Besides, the MIC90 in [21] is > 50 µM; in [22], > 50 µM; in [8] it was 0.1 µM (≈ 0.031 µg/mL); in data set [23], 12 µM (≈ 3.72 µg/mL). Moreover, inhibition in data set [4] was half-maximal at 88.7 µM (IC50).
On to `Cc1ccn2c(C(=O)NCc3ccc(Cl)cc3)c(C)nc2c1`, for which the minimal inhibitory concentration (MIC) in [1], in data set [3] and in [6] was > 128 µM each time. The MIC90 in data set [2] is 28 µM (≈ 8.79 µg/mL); in data set [5] it was 1.94 µM (≈ 0.609 µg/mL); in data set [7] it was 0.5 µM (≈ 0.157 µg/mL); in data set [8], 0.51 µM (≈ 0.16 µg/mL). The compound further had a F in data set [9] of 49%. The clearance in data set [10] amounted to 51 mL/min/kg. The IC50 in data set [4] is > 128 µM. Moreover, in data set [11], the Tmax is 18.6 min. The metabolised at 0.5 h in [12] was 82%; in data set [15], 79%. The same compound had a solubility in data set [13] of 25 µM (≈ 7.84 µg/mL). In data set [14], this compound had a half-life of 24 min. This compound also returned a Cmax in [16] of 2000 ng/mL.
As for `Cc1ccn2c(C(=O)NCc3ccccc3)c(C)nc2c1`, the minimum inhibitory concentration (MIC) in data set [1], in [3] and in data set [6] was > 128 µM each time. Also, the outcome in data set [24] and in [25] was Active. Also, the MIC90 in [2] is 53.6 µM (≈ 15 µg/mL); in data set [17], 1.07 µM (≈ 0.299 µg/mL); in data set [18] it was 1.32 µM (≈ 0.369 µg/mL); in data set [19] it was > 50 µM; in [5], 1.9 µM (≈ 0.531 µg/mL); in data set [20], > 50 µM. Also, the MIC90 in [21] was > 50 µM; in data set [22], > 50 µM; in [7] it was 0.37 µM (≈ 0.103 µg/mL); in [8], 0.69 µM (≈ 0.193 µg/mL); in data set [23] it was 1.32 µM (≈ 0.369 µg/mL). Further, in data set [9], the F came out at 76%. Further, the clearance in data set [10] stood at 91 mL/min/kg. Besides, the IC50 in data set [4] was > 128 µM. In addition, the Tmax in [11] turned out to be 15 min. Moreover, the metabolised at 0.5 h turned out to be 59% in data set [12] and 71% in data set [15]. In addition, the solubility in data set [13] came out at 181 µM (≈ 50.6 µg/mL). The half-life in [26] was 19 min; in data set [14] it was 21 min. This compound also showed a peak concentration (Cmax) in data set [16] of 3010 ng/mL.
